Assay results published in article PMC6274357, “Antiprotozoal and Antiglycation Activities of Sesquiterpene Coumarins from Ferula narthex Exudate” (Molecules, 2016).
Converted amounts (≈) assume the structure as drawn. Blank lines part the entries; values can stand above or below the compound they belong to.

Columns and labels:
[1] = system: Escherichia coli; assay: Antibacterial screening, E. coli; assay type: cell-based
Method: (§1) Fractions and isolated compounds were evaluated for antimicrobial activity in an integrated screening panel as reported before.

[2] = system: Peritoneal Murine Macrophages (PMM); assay: Cytotoxicity on peritoneal murine macrophages; assay type: cell-based; details: Mus musculus, Macrophage
Method: as §1

[3] = system: MRC-5: Human fetal lung fibroblasts; assay: Cytotoxicity on MRC-5 cells; assay type: cell-based; details: MRC5
Method: as §1

[4] = system: Trypanosoma cruzi; assay: Antitrypanosomal activity, T. cruzi; assay type: cell-based; details: read-out: IC50 T. cruz.
Method: as §1

[5] = system: Plasmodium falciparum K1; assay: Antiplasmodial activity; assay type: cell-based; details: K1, read-out: IC50 Pf-K1
Method: as §1

[6] = system: formation of Advanced Glycation Endproducts (AGEs), BSA-MGO (methyl glyoxal); assay: BSA-MGO antiglycation assay; assay type: biochemical, bovine
Method: The BSA (bovine serum albumin) -glucose and BSA-MGO (methyl glyoxal) antiglycation assays were carried out as reported before. The test protocol is attached as Supplementary Materials.
Supplementary Materials: Antiprotozoal and
Antiglycation Activities of Sesquiterpene Coumarins
from Ferula narthex Exudate […]
2. The AGEs Inhibition was Calculated as […]
3. Protein-Glyoxal Interaction (BSA-MGO Assay)
The antiglycation assay using methylgloxyl (MGO) was performed according to the method
developed by Peng et al. (2007) with slight modifications. Briefly, methylglyoxal (135 μL, 5.75 mM)
was incubated with BSA (135 μL, 10 mg/mL) dissolved in phosphate buffer (50 mM, pH 7.4,
containing sodium azide (0.02%), added to prevent bacterial growth) and test compounds (30 μL) at
different final concentrations (1.5–0.023 mM) in 100% DMSO. The reaction mixture was incubated at
37 °C for one week. Control solutions only contained methylglyoxal (135 μL, 5.75 mM) BSA (135 μL,
1 0 mg/mL) and DMSO (100%) only. The blank samples of similar composition were also prepared
simultaneously and kept at 4 °C for one week. The change in fluorescence intensity (excitation
335 nm, emission 385 nm; excitation 370, emission 440) due to formation of AGEs was monitored by
spectrofluorometry (Tecan® Infinite M200, Giessen, The Netherlands). Aminoguanidine (3–0.046 mM
final concentration) was used as reference compound. The AGEs inhibition was calculated as
% AGEs inhibition = [1 − (S − Sb)/(C − Cb)] × 100 (2)
where S and C were fluorescence of test samples (in DMSO) and control (test mixtures containing
only DMSO) incubated at 37 °C, and where Sb and Cb were fluorescence for samples incubated at 4 °C. […]

[7] = system: formation of Advanced Glycation Endproducts (AGEs), BSA-glucose; assay: BSA-glucose antiglycation assay; assay type: biochemical, bovine; details: for BSA-Glucose % Inhibition: at 0.25 mM (table footnote a)
Method: The BSA (bovine serum albumin) -glucose and BSA-MGO (methyl glyoxal) antiglycation assays were carried out as reported before. The test protocol is attached as Supplementary Materials. […]
1. Antiglycation Assay (BSA-Glucose Assay)
The antiglycation assay was performed according to the method developed by Matsuura et al.
(2002) with minor modifications. The reaction mixture (300 μL) contained bovine serum albumin
(BSA) (10 mg/mL, 135 μL), D-glucose (500 mM, 135 μL) dissolved in phosphate buffer (50 mM, pH
7.4, containing sodium azide (0.02%, added to prevent bacterial growth) and test compounds (30 μL),
at different final concentrations (1.5–0.023 mM for isolated constituents or 100–1.17 μg/mL for
extracts) dissolved in 100 % DMSO. The mixtures were incubated at 60 °C for 48 h. After incubation,
the reaction mixture was allowed to cool down at room temperature. Then 100 μL reaction mixture
was transferred to a new plastic tube (1.5 mL) and the reaction was stopped by adding 10 μL of 100%
(w/v) trichloroacetic acid (TCA) and to precipitate proteins. The TCA-added mixture was kept at 4 °C
for 10 min, followed by centrifugation (14,000 rpm, 4 °C, 4 min). The supernatant containing unreacted
D-glucose, test sample and interfering substances was discarded, whereas the precipitate containing
AGEs-BSA was redissolved with 0.8 mL alkaline PBS (137 mM NaCl, 8.1 mM Na2HPO4, 2.68 mM KCl,
1.47 mM KH2PO4, pH 10). The change in fluorescence intensity (excitation 335 nm, emission 385 nm;
excitation 370, emission 440) due to formation of AGEs was monitored by spectrofluorometry
(Tecan™ Infinite M200, Giessen, The Netherlands). In order to eliminate interference by autofluorescenc e
of the test compounds, a parallel incubation of test substance with BSA at 60 °C without D-glucose
was performed for all samples. Quercetin (0.5–0.0312 mM final concentration) and aminoguanidine
(3–0.046 mM final concentration) were used as reference compounds.
2. The AGEs Inhibition was Calculated as
% inhibition = {1 − (FBSA + glucose + test substance − FBSA + test substance)/(FBSA
+ glucose − FBSA)} × 100 (1)
where F is the fluorescence intensity.
calculated using Sigma plot® 13.0. […]

[8] = system: Trypanosoma brucei; assay: Antitrypanosomal activity, T. brucei; assay type: cell-based; details: read-out: IC50 T. bruc.
Method: as §1

[9] = system: Leishmania infantum; assay: Antileishmanial activity, L. infantum; assay type: cell-based
Method: as §1

[10] = system: formation of Advanced Glycation Endproducts (AGEs), BSA-MGO (methyl glyoxal); assay: BSA-MGO antiglycation assay; assay type: biochemical, bovine; details: at 2 mM
[11] = system: Staphylococcus aureus; assay: Antibacterial screening, S. aureus; assay type: cell-based
Method: as §1

[12] = system: Microsporum canis; assay: Antifungal screening, M. canis; assay type: cell-based
Method: as §1

[13] = system: Aspergillus fumigatus; assay: Antifungal screening, A. fumigatus; assay type: cell-based
Method: as §1

[14] = system: Leishmania promastigote stage; parameters: method as in doi:10.1016/j.phytol.2014.04.009; details: cited from earlier work

SMILES: O=C(N[C@H](CO)[C@H](O)c1ccc([N+](=O)[O-])cc1)C(Cl)Cl [chloramphenicol]
IC50 [1]: 4.9 µM

IC50 [4]: 8.6 µM
IC50 [5]: 22.4 µM
IC50 [6]: 1710 µM
BSA-Glucose IC50 [7]: did not reach the 50% inhibition level
IC50 [8]: 8.1 µM
IC50 [9]: 6.8 µM
SMILES: CC1=CC[C@@H]2C(C)(C)[C@H](O)CC[C@@]2(C)[C@@H]1COc1ccc2ccc(=O)oc2c1 [Compound 1, Feselol]
IC50 [2]: 8 µM
IC50 [3]: 8 µM
BSA-Glucose % Inhibition [7]: 47%

BSA-MGO IC50 [6]: the 50% inhibition level was not reached
IC50 [7]: 410 µM
SMILES: CC1=CC(=O)[C@@H]2C(C)(C)[C@H](O)CC[C@@]2(C)[C@@H]1COc1ccc2ccc(=O)oc2c1 [Compound 2, Ligupersin A]
BSA-MGO % Inhibition [10]: 40%

IC50 [8]: 0.03 µM
SMILES: Cc1ccc(C(=O)Nc2ccc(S(=O)(=O)O)c3cc(S(=O)(=O)O)cc(S(=O)(=O)O)c23)cc1NC(=O)c1cccc(NC(=O)Nc2cccc(C(=O)Nc3cc(C(=O)Nc4ccc(S(=O)(=O)O)c5cc(S(=O)(=O)O)cc(S(=O)(=O)O)c45)ccc3C)c2)c1 [suramine, reference compound]

IC50 [4]: 9.4 µM
IC50 [5]: 16 µM
IC50 [6]: 1830 µM
BSA-Glucose IC50 [7]: did not reach the 50% inhibition level
IC50 [8]: 32.4 µM
IC50 [9]: 32.4 µM
SMILES: C/C(=C\COc1ccc2ccc(=O)oc2c1)CC/C=C(\C)CC[C@@H](O)C(C)(C)O [Compound 5, 10′R-Karatavacinol]
IC50 [2]: 32 µM
IC50 [3]: 20.4 µM
BSA-Glucose % Inhibition [7]: 32%

IC50 [11]: 11.2 mg/L (≈ 15.3 µM)
SMILES: CC[C@H]1OC(=O)[C@H](C)[C@@H](O[C@H]2C[C@@](C)(OC)[C@@H](O)[C@H](C)O2)[C@H](C)[C@@H](O[C@@H]2O[C@H](C)C[C@H](N(C)C)[C@H]2O)[C@](C)(O)C[C@@H](C)C(=O)[C@H](C)[C@@H](O)[C@]1(C)O [erythromycin]

IC50 [12]: 0.11 mg/L (≈ 0.377 µM)
IC50 [13]: 0.8 µM
SMILES: CN(C/C=C/C#CC(C)(C)C)Cc1cccc2ccccc12 [terbinafine]

SMILES: CC1=CC[C@@H]2C(C)(C)[C@@H](O)CC[C@@]2(C)[C@@H]1COc1ccc2ccc(=O)oc2c1 [conferol]
IC value, antileishmanial activity [14]: 11.51 µg/mL

IC50 [5]: 0.16 µM
SMILES: CCN(CC)CCCC(C)Nc1ccnc2cc(Cl)ccc12 (centres unmarked) [chloroquine, reference compound]

SMILES: N=C(N)NN [Aminoguanidine, reference compound]
IC50 [6]: 150 µM
IC50 [7]: 1750 µM

IC50 [4]: 3.3 µM
SMILES: O=C(Cn1ccnc1[N+](=O)[O-])NCc1ccccc1 [benznidazole, reference compound]

IC50 [6]: 350 µM
IC50 [7]: 230 µM
SMILES: O=c1c(O)c(-c2ccc(O)c(O)c2)oc2cc(O)cc(O)c12 [Quercetin, reference compound]

IC50 [4]: 10.5 µM
IC50 [5]: 1.3 µM
BSA-MGO IC50 [6]: the 50% inhibition level was not reached
IC50 [7]: 1830 µM
IC50 [8]: 32.6 µM
IC50 [9]: 12.7 µM
SMILES: CC(C)=CCC(O)/C(C)=C/C(O)C/C(C)=C/COc1ccc2ccc(=O)oc2c1 (centres unmarked) [Compound 4, Asacoumarin A]
IC50 [2]: 32 µM
IC50 [3]: 11.7 µM
BSA-MGO % Inhibition [10]: 35%

BSA-MGO IC50 [6]: the 50% inhibition level was not reached
BSA-Glucose IC50 [7]: did not reach the 50% inhibition level
SMILES: CC(=O)O[C@H](CC/C(C)=C/CC/C(C)=C/COc1ccc2ccc(=O)oc2c1)C(C)(C)O [Compound 6, 10′R-Acetyl-karatavacinol]
BSA-Glucose % Inhibition [7]: 36%
BSA-MGO % Inhibition [10]: 20%

IC50 [1]: 0.25 mg/L
SMILES: COc1cc(Cc2cnc(N)nc2N)cc(OC)c1OC [trimethoprim]

IC50 [4]: 19.1 µM
IC50 [5]: 7.4 µM
IC50 [6]: 1030 µM
BSA-Glucose IC50 [7]: did not reach the 50% inhibition level
IC50 [8]: 32.4 µM
IC50 [9]: 12.7 µM
SMILES: CC(=O)OC(CC=C(C)C)/C(C)=C/C(O)C/C(C)=C/COc1ccc2ccc(=O)oc2c1 (centres unmarked) [Compound 3, 8′-O-Acetyl-asacoumarin A]
IC50 [2]: 32 µM
IC50 [3]: 31.7 µM
BSA-Glucose % Inhibition [7]: 44%
